Measurements published in EP4741390A1, “BIARYL RING COMPOUND, INTERMEDIATE THEREOF, PREPARATION METHOD THEREFOR AND USE THEREOF” (Hangzhou Synrx Therapeutics Biomedical Technology Co., Ltd., priority 2023, dated 2025).
Read-outs that look alike come from different tables or passages of the source.

Assays:
[1] = target: helicase domain of the Pol θ protein (Homo sapiens, UniProt O75417); assay type: biochemical
Experimental: Biochemical Activity Assay (ADP Glo Assay) of Pol θ Inhibitor
The specific assay method was as follows: • 1) The helicase domain of the Pol θ protein was purified by an insect system, to obtain the protein with a purity of >90%. ssDNA (5'-[sequence]-3', Hangzhou Yocon Biotechnology Co., Ltd.) was ordered as the substrate for the Pol θ protein; and a reaction buffer containing 10 mM DTT (Dithiothreitol), 20 mM MgCl2 and Tris-HCl pH 7.5 was prepared. • 2) The 2x ssDNA-Pol θ premix was prepared; the reaction was conducted in a 384-well plate; a control group with only buffer is set, and the premix was added to the rest of the groups.

[2] = tested on: DLD1 BRCA2-/- cells; test: Cell viability assay (CTG assay), DLD1 BRCA2-/- cells; assay type: cell-based; conditions: Homo sapiens, DLD-1, 240 h; CellTiter Glo, read on Day 10, initial concentration 30 µM
Experimental: (§1) 2. Cell Viability Assay of Pol θ Inhibitor
(§2) The cell viability assay, i.e., the commonly used CTG assay, was conducted for the efficacy of the inhibitor in vitro using the CellTiter Glo reagent (Promega, G7573).

[3] = tested on: DLD1 wild type; test: Cell viability assay (CTG assay), DLD1 wild type cells; assay type: cell-based; conditions: Homo sapiens, DLD-1, 240 h; CellTiter Glo, read on Day 10, initial concentration 30 µM
Experimental: as §1, §2

[4] = ATPase activity, ADP-Glo, ssDNA substrate, 60 min at room temperature, initial concentration 10 µM, read-out: Biochemical experiment IC50

helicase domain of the Pol θ protein, sequence (O75417 102-554 limits assumed): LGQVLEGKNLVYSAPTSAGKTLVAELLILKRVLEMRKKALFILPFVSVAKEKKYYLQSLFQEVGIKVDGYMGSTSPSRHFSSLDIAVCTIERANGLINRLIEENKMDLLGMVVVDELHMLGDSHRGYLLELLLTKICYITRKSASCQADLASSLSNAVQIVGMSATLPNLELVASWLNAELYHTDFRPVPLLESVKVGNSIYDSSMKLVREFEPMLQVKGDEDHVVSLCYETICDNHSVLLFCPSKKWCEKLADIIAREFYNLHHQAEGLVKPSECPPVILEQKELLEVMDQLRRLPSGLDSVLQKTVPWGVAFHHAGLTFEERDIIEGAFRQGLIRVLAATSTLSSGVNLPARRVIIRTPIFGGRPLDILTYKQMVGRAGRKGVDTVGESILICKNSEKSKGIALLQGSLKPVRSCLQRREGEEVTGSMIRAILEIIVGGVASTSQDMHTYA

With `COc1cnc(C(F)F)cc1-c1cc(-n2cccc(F)c2=O)ncc1C(=O)Nc1nc(N2CC3CC3C2)ns1` (stereo not drawn) [Example 28, N-(3-(3-azabicyclo[3,1,0]hex-3-yl)-1,2,4-thiadiazol-5-yl)-2"-(difluoromethyl)-3-fluoro-5"-methoxy-2-oxo-2H-[1,2':4',4"-terpyridin]-5'-carboxamide] the IC50 [1, 4] was 11 nM, the IC50 [2] was 24.2 nM and the IC50 [3] was over 5000 nM.

For `COc1cnc(C(F)F)cc1-c1cc(-n2cccc(F)c2=O)ncc1C(=O)Nc1nccs1` [Example 4, 2"-(difluoromethyl)-3-fluoro-5"-methoxy-2-oxo-N-(thiazol-2-yl)-2H-[1,2':4',4"-terpyridine]-5'-carboxamide], the IC50 [1, 4] was 20.9 nM, the IC50 [2] was 43 nM and the IC50 [3] was over 50000 nM.

`COc1cnc(C(F)F)cc1-c1cc(-n2cccc(F)c2=O)ncc1C(=O)Nc1nc(N)ns1` [Example 30, N-(3-amino-1,2,4-thiadiazol-5-yl)-2"-(difluoromethyl)-3-fluoro-5"-methoxy-2-oxo-2H-[1,2':4',4"-terpyridin]-5'-carboxamide] gave an IC50 [1, 4] of 34.1 nM and an IC50 [3] of over 5000 nM.

`COc1cnc(C(F)F)cc1-c1cc(-n2cccc(F)c2=O)ncc1C(=O)Nc1nc(-c2c(C)cnn2C)ns1` [Example 14, 2"-(difluoromethyl)-N-(3-(1,4-dimethyl-1H-pyrazol-5-yl)-1,2,4-thiadiazol-5-yl)-3-fluoro-5"-methoxy-2-oxo-2H-[1,2':4',4"-terpyridine]-5'-carboxamide] was tested, and the IC50 [1, 4] was 3.63 nM, the IC50 [2] was 4.82 nM and the IC50 [3] was over 50000 nM.

Compound `COc1cnc(C(F)F)cc1-c1cc(-n2cccc(F)c2=O)ncc1C(=O)Nc1nc(-c2ccccn2)ns1` [Example 8, 2"-(difluoromethyl)-3-fluoro-5"-methoxy-2-oxo-N-(3-(pyridin-2-yl)-1,2,4-thiadiazol-5-yl)-2H-[1,2':4',4"-terpyridine]-5'-carboxamide] has an IC50 [1, 4] of 8.23 nM, an IC50 [2] of 56.2 nM and an IC50 [3] of 19200 nM.

For `COc1cnc(C(F)F)cc1-c1cc(-n2cccc(F)c2=O)ncc1C(=O)Nc1nc(-c2c(C)noc2C)ns1` [Example 22, 2"-(difluoromethyl)-N-(3-(3,5-dimethylisoxazol-4-yl)-1,2,4-thiadiazol-5-yl)-3-fluoro-5"-methoxy-2-oxo-2H-[1,2':4',4"-terpyridine]-5'-carboxamide], the IC50 [1, 4] was 3.41 nM, the IC50 [2] was 5.01 nM and the IC50 [3] was over 5000 nM.

`COc1cnc(C(F)F)cc1-c1cc(-n2cccc(F)c2=O)ncc1C(=O)Nc1nc(-c2ccccc2)ns1` [Example 9, 2"-(difluoromethyl)-3-fluoro-5"-methoxy-2-oxo-N-(3-phenyl-1,2,4-thiadiazol-5-yl)-2H-[1,2':4',4"-terpyridine]-5'-carboxamide] was tested, and the IC50 [1, 4] was 13.4 nM, the IC50 [2] was 32.9 nM and the IC50 [3] was over 50000 nM.

For `COc1cnc(Cl)cc1-c1cc(C)ncc1C(=O)Nc1nc(C2CC2)ns1` [Example 5, 2'-chloro-N-(3-cyclopropyl-1,2,4-thiadiazol-5-yl)-5'-methoxy-6-methyl-[4,4'-bipyridine]-3-carboxamide], the IC50 [1, 4] was 132 nM and the IC50 [3] was over 50000 nM.

Work on `COc1cnc(C(F)F)cc1-c1cc(-n2cccc(F)c2=O)ncc1C(=O)Nc1nc(-c2ccc(Cl)cc2)ns1` [Example 23] yielded an IC50 [1] of 170 nM, an IC50 [2] of 185 nM and an IC50 [3] of over 50000 nM.

Compound `COc1cnc(C(F)F)cc1-c1cc(-n2cccc(F)c2=O)ncc1C(=O)Nc1nc(-c2ccncc2)cs1` [Example 2, 2"-(difluoromethyl)-3-fluoro-5"-methoxy-2-oxo-N-(4-(pyridin-4-yl)thiazol-2-yl)-2H-[1,2':4',4"-terpyridine]-5'-carboxamide] has an IC50 [1, 4] of 5.58 nM, an IC50 [2] of 41.2 nM and an IC50 [3] of over 50000 nM.

With `COc1cnc(C(F)F)cc1-c1cc(-n2cccc(F)c2=O)ncc1C(=O)Nc1nc(N2CC3CC(C2)N3)ns1` [Example 27, N-(3-(3,6-diazabicyclo[3.1.1]heptan-3-yl)-1,2,4-thiadiazol-5-yl)-2"-(difluoromethyl)-3-fluoro-5"-methoxy-2-oxo-2H-[1,2':4',4"-terpyridin]-5'-carboxamide] the IC50 [1, 4] was 158 nM and the IC50 [3] was over 5000 nM.

`COc1cnc(Cl)cc1-c1cc(-n2cccc(F)c2=O)ncc1C(=O)Nc1nc(C2CC2)ns1` [Example 21, 2"-chloro-N-(3-cyclopropyl-1,2,4-thiadiazol-5-yl)-3-fluoro-5"-methoxy-2-oxo-2H-[1,2':4',4"-terpyridine]-5'-carboxamide] was tested, and the IC50 [1, 4] was 8.57 nM, the IC50 [2] was 7.64 nM and the IC50 [3] was over 5000 nM.

For `COc1cnc(C(F)F)cc1-c1cc(-n2cccc(F)c2=O)ncc1C(=O)Nc1nc(Cl)ns1` [Example 20, N-(3-chloro-1,2,4-thiadiazol-5-yl)-2"-(difluoromethyl)-3-fluoro-5"-methoxy-2-oxo-2H-[1,2':4',4"-terpyridine]-5'-carboxamide], the IC50 [1, 4] was 8.31 nM, the IC50 [2] was 22.4 nM and the IC50 [3] was over 5000 nM.

With `CCCc1nsc(NC(=O)c2cnc(-n3cccc(F)c3=O)cc2-c2cc(C(F)F)ncc2OC)n1` [Example 16, 2"-(difluoromethyl)-3-fluoro-5"-methoxy-2-oxo-N-(3-propyl-1,2,4-thiadiazol-5-yl)-2H-[1,2':4',4"-terpyridine]-5'-carboxamide] the IC50 [1, 4] was 9.69 nM, the IC50 [2] was 10 nM and the IC50 [3] was over 5000 nM.

`COc1cnc(Cl)cc1-c1cc(-n2cccc(F)c2=O)ncc1C(=O)Nc1nc(-c2c(C)cnn2C)ns1` [Example 26, 2"-chloro-N-(3-(1,4-dimethyl-1H-pyrazol-5-yl)-1,2,4-thiadiazol-5-yl)-3-fluoro-5"-methoxy-2-oxo-2H-[1,2':4',4"-terpyridin]-5'-carboxamide] was tested, and the IC50 [1, 4] was 2.29 nM, the IC50 [2] was 0.82 nM and the IC50 [3] was over 5000 nM.

`COc1cnc(C(F)F)cc1-c1cc(-n2cccc(F)c2=O)ncc1C(=O)Nc1nc(-c2ccncc2)ns1` [Example 15, 2"-(difluoromethyl)-3-fluoro-5"-methoxy-2-oxo-N-(3-(pyridin-4-yl)-1,2,4-thiadiazol-5-yl)-2H-[1,2':4',4"-terpyridine]-5'-carboxamide] gave an IC50 [1, 4] of 5.58 nM, an IC50 [2] of 10.8 nM and an IC50 [3] of over 5000 nM.

With `COc1cnc(C(F)F)cc1-c1cc(-n2cccc(F)c2=O)ncc1C(=O)Nc1nc(C2CC2)ns1` [Example 1, N-(3-cyclopropyl-1,2,4-thiadiazol-5-yl)-2"-difluoromethyl-3-fluoro-5"-methoxy-2-oxo-2H-[1,2':4',4"-tripyridin]-5'-carboxamide] the IC50 [1] was 6.92 nM, the IC50 [2] was 48.2 nM and the IC50 [3] was over 50000 nM.

With `COc1cnc(C(F)F)cc1-c1cc(-n2cccc(F)c2=O)ncc1C(=O)Nc1nc(N2CC3CC(C2)N3C)ns1` [Example 29, 2"-(difluoromethyl)-3-fluoro-5"-methoxy-N-(3-(6-methyl-3,6-diazabicyclo[3.1.1]heptan-3-yl)-1,2,4-thiadiazol-5-y)-2-oxo-2H-[1,2':4',4"-terpyridin]-5'-carboxamide] the IC50 [1] was 244 nM and the IC50 [3] was over 5000 nM.

With `COc1cnc(C(F)F)cc1-c1cc(-n2cccc(F)c2=O)ncc1C(=O)Nc1nc(-c2ccc(F)cc2)ns1` [Example 12, 2"-(difluoromethyl)-3-fluoro-N-(3-(4-fluorophenyl)-1,2,4-thiadiazol-5-yl)-5"-methoxy-2-oxo-2H-[1,2':4',4"-terpyridine]-5'-carboxamide] the IC50 [2] was 25.1 nM and the IC50 [3] was 23300 nM.

`COc1cnc(C(F)F)cc1-c1cc(-n2cccc(F)c2=O)ncc1C(=O)Nc1nc(NC(C)=O)ns1` [Example 31, N-(3-acetamino-1,2,4-thiadiazol-5-yl)-2"-(difluoromethyl)-3-fluoro-5"-methoxy-2-oxo-2H-[1,2':4',4"-terpyridin]-5'-carboxamide] showed an IC50 [1, 4] of 14.4 nM and an IC50 [3] of over 5000 nM.
